Reference: the SangsterLogP compilation

Test: method code SF, from Hansch, C. & Leo, A. (1987). Log P database [Dataset]. Pomona College Medicinal Chemistry Project.
Details: not given

Going from CCc1cccs1 to COC(=O)Cc1cccs1, the logP falls from 2.87 to 1.51.

COc1cc(/C=N/O)ccc1OCCOC(=O)c1ccc(Cl)cc1 and COc1cc(C=NO)ccc1OCCOC(=O)c1cccc(Cl)c1 are within 0.2 log units of each other in logP: 3.92 for the first, 3.94 for the second.

First: C=C(F)F
Second: OCC(F)(F)F
The logP of the first is higher: 1.24 for the first, 0.32 for the second.

First: O=C(Nc1ccccc1)Nc1ccc(Cl)c(Cl)c1
Second: CC=CC(=O)Nc1ccc(Cl)c(Cl)c1
The logP of the first is higher: 4.7 for the first, 3.63 for the second.

First: Nc1c2ccccc2nc2ccccc12
Second: c1ccc(Sc2ccccc2)cc1
The logP of the first is lower: 2.74 for the first, 4.45 for the second.

CCOP(=O)(OCC)Oc1ccc(SC)cc1Cl and CCOP(=O)(OCC)Oc1ccc(SC)cc1C are within 0.2 log units of each other in logP: 3.05 for the first, 3.21 for the second.

Compared with C=CC(N)=O, NC(=O)/C=C/c1ccccc1 is higher in logP: -0.67 for the first, 1.42 for the second.

Compared with Cc1ccccc1/C=N/O, COC(=O)c1ccccc1C is higher in logP: 2.53 for the first, 2.75 for the second.

Compared with CCOP(=S)(OCC)N1C(=O)c2ccccc2C1=O, CCOC(=O)C(=Cc1ccccc1OC)C(C)=O is lower in logP: 3.48 for the first, 2.39 for the second.

First: O=C(Nc1ccc(Cl)c(Cl)c1)C(F)(F)F
Second: N#CCC(=O)Nc1ccc(Cl)c(Cl)c1
The logP of the first is higher: 3.9 for the first, 2.72 for the second.

Going from Cc1c([N+](=O)[O-])cc(C(N)=O)cc1[N+](=O)[O-] to Cn1ncc2cc([N+](=O)[O-])cc([N+](=O)[O-])c21, the logP rises from 0.68 to 1.63.

Going from N#Cc1c(N)sc2ccccc12 to CC(=O)Oc1ccccc1C#N, the logP falls from 2.17 to 1.33.

First: O=C1C(NCC(O)CO)=C(N2CC2)C(=O)C(NCC(O)CO)=C1N1CC1 (stereo unspecified)
Second: O=C1C(N2CCOCC2)=C(N2CC2)C(=O)C(N2CCOCC2)=C1N1CC1
The logP of the first is lower: -1.97 for the first, 0.52 for the second.

Compared with CCC(=O)Nc1ccccc1, O=C(O)CNc1ccccc1 is lower in logP: 1.61 for the first, 0.62 for the second.

First: CCCCOC(=O)c1cccc(C(=O)OCCCC)c1
Second: CCCCOc1cccc(C=C(C(=O)OCC)C(=O)OCC)c1
The logP of the first is higher: 4.26 for the first, 4.03 for the second.

Going from CCC(C)NP(=O)(OC)Oc1cc(Cl)c(Cl)cc1Cl (stereo unspecified) to CCNP(=O)(OC)Oc1cc(Cl)c(Cl)cc1Cl (stereo unspecified), the logP falls from 3.99 to 3.18.

Compared with CC(C)(C)N, COP(=O)(OC)OC is lower in logP: 0.4 for the first, -0.52 for the second.

Going from O=c1[nH]c(=O)n([C@H]2C[C@H](O)[C@@H](CO)O2)cc1F to CN(C)/N=N/c1cn([C@@H]2O[C@H](CO)[C@@H](O)[C@H]2O)c(=O)[nH]c1=O, the logP falls from -1.16 to -1.82.

Compared with CCOC(=O)C(=Cc1ccc(Cl)cc1Cl)C(C)=O, CCOC(=O)C(=Cc1cccc(Cl)c1)C(C)=O is lower in logP: 3.67 for the first, 2.97 for the second.

Compared with CP(C)c1ccccc1, C[C@@H](O)c1ccccc1 is lower in logP: 2.57 for the first, 1.42 for the second.

First: CC(=O)C(=Cc1ccccc1Cl)C(C)=O
Second: CC(=O)Nc1ccccc1[N+](=O)[O-]
The logP of the first is higher: 2.19 for the first, 1.05 for the second.

O=[N+]([O-])c1cn[nH]c1 and NC(=O)c1cccc([N+](=O)[O-])c1 are within 0.2 log units of each other in logP: 0.59 for the first, 0.77 for the second.

Compared with O=C(O)c1ccoc1, O=C(O)CSCc1ccccc1 is higher in logP: 1.03 for the first, 2.1 for the second.

Going from CN(C)C(=O)Cc1cccs1 to CN(C)c1cccc(C(N)=O)c1, the logP rises from 0.65 to 0.95.

Going from CCC(C)NC(=O)C=C(Br)c1ccc(Cl)cc1 (stereo unspecified) to CCSC(=Cc1ccccc1)C(=O)NC(C)CC (stereo unspecified), the logP falls from 3.9 to 3.4.

Going from Cc1ccc(S(=O)(=O)Oc2ccccc2C(=O)N(C)C)cc1 to Cc1ccc(S(=O)(=O)F)cc1, the logP rises from 2.01 to 2.74.

First: c1ccc2oncc2c1
Second: O=c1cc2ccccc2n[nH]1
The logP of the first is higher: 1.63 for the first, 0.68 for the second.

Compared with CCOC(=O)C(F)(F)C(F)(F)F, CC(=O)Oc1cccc(C(F)(F)F)c1 is higher in logP: 2.12 for the first, 2.63 for the second.

Going from O=C(O)COc1ccc(Cl)c([N+](=O)[O-])c1 to O=[N+]([O-])/C=C/c1ccc(Cl)cc1Cl, the logP rises from 1.85 to 3.26.

Going from CC(F)F to FC(F)(F)Br, the logP rises from 0.75 to 1.86.

Compared with O=P1(NCCCl)OCCCN1CCCl (stereo unspecified), O=NN1CCOCC1 is lower in logP: 0.86 for the first, -0.3 for the second.

First: CNP(=O)(OC)Oc1ccc(C(C)(C)C)cc1Cl (stereo unspecified)
Second: COP(=O)(NCC(C)C)Oc1cc(Cl)c(Cl)cc1Cl (stereo unspecified)
The logP of the first is lower: 3.42 for the first, 3.86 for the second.

Going from NS(=O)(=O)NS(=O)(=O)Nc1ccccc1 to ONc1ccccc1, the logP rises from 0.02 to 0.79.

First: COc1ccc2ncccc2c1
Second: CC(=O)c1ccc2ncccc2c1
The logP of the first is higher: 2.2 for the first, 1.58 for the second.

First: Nc1ncccn1
Second: Cc1ccc(N)nc1
The logP of the first is lower: -0.22 for the first, 1.02 for the second.

Compared with COc1ccc2c(c1)N=C(C)NS2(=O)=O, NC1=Nc2cc(Cl)ccc2S(=O)(=O)N1 is higher in logP: 0.56 for the first, 0.91 for the second.

Compared with CC(=O)Oc1ccccc1Br, CC(=O)Oc1cccc(F)c1 is lower in logP: 2.2 for the first, 1.74 for the second.

First: NC(=O)c1cccc(F)c1
Second: N#Cc1ccc(C(N)=O)cc1
The logP of the first is higher: 0.91 for the first, 0.48 for the second.

Going from O[C@@H]1CCCC[C@H]1O to O=C1CCCCC1, the logP rises from 0.08 to 0.81.

Compared with S=c1cc[nH]cc1, O=c1cc[nH]c2ccccc12 is higher in logP: 0.2 for the first, 0.58 for the second.

Compared with O=S1(=O)NC=Nc2ccc(Cl)cc21, Cc1cccc(Cl)c1 is higher in logP: 1.07 for the first, 3.28 for the second.

Going from O=S(=O)(Nc1cn[nH]c1)c1ccccc1 to NC(=O)Oc1ccccc1, the logP rises from 0.87 to 1.08.

Going from CCCCNP(=O)(OC)Oc1cc(Cl)c(Cl)cc1Cl (stereo unspecified) to CCCNP(=O)(OC)Oc1cc(Cl)c(Cl)cc1Cl (stereo unspecified), the logP falls from 4.18 to 3.7.

Going from O=C1CCN(c2ccccc2)N1 to O=c1c2ccccc2ncn1O, the logP falls from 0.89 to -0.45.

Compared with c1ccc2c(c1)Cc1ccccc1C2, O=C1OC(Cc2ccccc2)c2ccccc21 (stereo unspecified) is lower in logP: 4.25 for the first, 3.12 for the second.

Compared with ClC(Cl)=C(Cl)Cl, CC(=O)C(C)=O is lower in logP: 3.4 for the first, -1.34 for the second.

First: COc1ccc(OC(C)=O)cc1
Second: COc1ccc(C(N)=O)cc1
The logP of the first is higher: 1.54 for the first, 0.86 for the second.

N#CN=[N+]([O-])c1ccc(Cl)cc1 and Cc1cccc([N+]([O-])=NC#N)c1 are within 0.2 log units of each other in logP: 2.33 for the first, 2.49 for the second.

Compared with CNC(=O)NCCSCc1nc[nH]c1C, CNC(C)=O is lower in logP: -0.06 for the first, -1.05 for the second.

Going from O=C(O)Cc1c[nH]c2ccccc12 to O=C(CNC(=O)c1ccccc1)Oc1ccc(F)cc1, the logP rises from 1.41 to 2.46.

O=[N+]([O-])c1ccc(C=Cc2nccc(Cl)n2)o1 and O=C1CCCN1CCOc1ccc([N+](=O)[O-])cc1 are within 0.2 log units of each other in logP: 1.31 for the first, 1.33 for the second.

First: CC(C)(Cc1ccccc1)NC(=O)N(CCCl)N=O
Second: OCCOc1ccccc1
The logP of the first is higher: 3.73 for the first, 1.16 for the second.

First: O=C1C=CC(=NCl)C=C1
Second: C=CCN(C)/N=N/c1ccc(C(N)=O)cc1
The logP of the first is lower: 1.26 for the first, 2.09 for the second.

First: COc1cc(C=O)ccc1OCCOC(=O)c1ccccc1Cl
Second: O=C(OCCOCCO)c1ccccc1
The logP of the first is higher: 3.21 for the first, 1.16 for the second.

Going from C/N=C(\NC)NC#N to CN(C)C#N, the logP rises from -0.4 to -0.15.

Compared with Cc1ccc2c(=O)[nH]c(=O)[nH]c2c1, CCCCCCC1OC(=O)c2cc(N)ccc21 (stereo unspecified) is higher in logP: 0.55 for the first, 3.65 for the second.

Going from CCC(=O)c1ccncc1 to CCCCC1OC(=O)c2cc(NC(C)=O)ccc21 (stereo unspecified), the logP rises from 0.77 to 2.77.

Compared with CCC(=O)OCC(=O)[C@@]1(OC(=O)CC)[C@H](C)C[C@H]2[C@@H]3C[C@H](F)C4=CC(=O)C(Cl)=C[C@]4(C)[C@@]3(F)[C@@H](O)C[C@@]21C, CC1(C)O[C@@H]2C[C@H]3[C@@H]4C[C@H](F)C5=CC(=O)C=C[C@]5(C)[C@@]4(F)[C@@H](O)C[C@]3(C)[C@]2(C(=O)CO)O1 is lower in logP: 4.22 for the first, 2.48 for the second.

First: CC(=O)O[C@@H]1[C@@H](OC(C)=O)[C@H](OC(C)=O)CO[C@H]1NC(=O)N(CCCl)N=O
Second: CCOC(=O)[C@H](O)[C@@H](O)C(=O)OCC
The logP of the first is higher: 1.05 for the first, -0.29 for the second.

Compared with OCCOCCN1CCN(CCCN2c3ccccc3Sc3ccc(C(F)(F)F)cc32)CC1, FC(F)(F)Sc1ccccc1 is lower in logP: 4.49 for the first, 3.57 for the second.

Going from Cc1nnc(C)s1 to CN(C)/N=N/c1ccc(C#N)cc1, the logP rises from 0.03 to 2.35.

Compared with CC1(C)OCCO1, CCCCNC is higher in logP: 0.46 for the first, 1.33 for the second.

First: COC(=O)CCC(=O)N(C)c1ccc(S(=O)(=O)N(C)C)cc1
Second: O=C(CNC(=O)c1ccccc1)Oc1ccccc1
The logP of the first is lower: 0.43 for the first, 2.31 for the second.

First: O=C(C=Cc1ccco1)c1ccco1
Second: COC(=O)C=Cc1ccccc1
The logP of the first is lower: 2.34 for the first, 2.62 for the second.

Going from COc1cccc(OC)c1OC to CC(C)c1cccc(C(C)C)c1N, the logP rises from 1.53 to 3.18.

First: CCOP(=O)(OCC)SCSCC
Second: CCOCOCC
The logP of the first is higher: 2.07 for the first, 0.84 for the second.

Compared with CSc1cccc(/N=N/N(C)C)c1, CSc1ccc(C=NN=C(N)NN)cc1 is lower in logP: 2.98 for the first, 1.35 for the second.

Going from O=C(NCC(O)CO)Nc1ccccc1 (stereo unspecified) to Cc1ccccc1OCC(O)CO (stereo unspecified), the logP rises from 0.28 to 1.41.

First: CC(=O)N(c1ccccc1)c1ccccc1
Second: O=C(Oc1ccccc1)Oc1ccccc1
The logP of the first is lower: 2.05 for the first, 3.28 for the second.

Going from CC(=S)Oc1ccccc1 to COc1ccc2[nH]c(CC(O)c3nc4cc(OC)ccc4[nH]3)nc2c1 (stereo unspecified), the logP falls from 1.91 to 0.76.

CN(C)CCc1ccsc1 and CCCCl are within 0.2 log units of each other in logP: 1.94 for the first, 2.04 for the second.

Same assay, conditions: pH 2.0

With O=C(O)c1ncccc1O the logD was -1.27.

Same assay, conditions: pH 3.0

With CC(=O)OCC1=C(C(=O)O)N2C(=O)[C@@H](NC(=O)CBr)[C@H]2SC1 the logD was -0.7.

Same assay, conditions: pH 4.2

Nc1nc(=O)c2[nH]nnc2[nH]1 gave a logD of -0.71.

Same assay, conditions: pH 5.0

O=[N+]([O-])c1ccc2oncc2c1 showed a logD of 1.46.

Same assay, conditions: pH 7.0

Work on CCCCOC(=O)c1cccnc1 yielded a logD of 2.27.

Same assay, conditions: pH 7.4

Going from COc1cc2c(c(OC)c1OC)-c1ccc(SC)c(=O)cc1[C@@H](N[C@@H]1O[C@H](CO)[C@@H](O)[C@H](O)[C@H]1O)CC2 to COc1ccc2c(c1O)-c1cccc3c1C(C2)N(CCO)CC3 (stereo unspecified), the logD rises from 1.25 to 2.43.

Compared with COc1ccccc1/N=N/N(C)C, CCCNc1c(C)n(C)c(=O)n(-c2ccccc2)c1=O is lower in logD: 2.34 for the first, 1.2 for the second.

Work on Cc1c(N2CCCC2)c(=O)n(-c2ccccc2)c(=O)n1C yielded a logD of 2.26.

Same assay, conditions: pH 8.0

First: Cn1c(N)cc2ccccc21
Second: OC(c1ccccc1)c1ccccn1 (stereo unspecified)
The logD of the first is higher: 1.72 for the first, 1.52 for the second.

Same assay, conditions: pH 11.0

For c1cncc([C@@H]2CCCCN2)c1, the logD was 0.97.

Same assay, conditions: pH 12.0

For CCCCC1CC(C(=O)NC(C(C)Cl)C2OC(SC)C(O)C(O)C2O)N(CC)C1 (stereo unspecified), the logD was 3.21.

Same assay, conditions: pH 13.0

Going from Nc1nc(N)c2ncn(COCCO)c2n1 to CC(=O)c1ccc(N2C(N)=NC(N)=NC2(C)C)cc1, the logD rises from -1.06 to -0.04.

Going from CC1(C)N=C(N)N=C(N)N1c1ccccc1 to CC1(C)N=C(N)N=C(N)N1c1ccc(I)cc1, the logD rises from 0.28 to 1.39.

With CNCc1ccccc1 the logD was 1.52.
